Assay results taken from ChEMBL document CHEMBL1201862, “PubChem BioAssay data set” (2004).
Active and inactive are the calls of the source.

Tests used:
[1] = target: T1, Heat shock factor protein 1 (Mus musculus, UniProt P38532); test: enhancement of HSF1-driven luciferase signal – cell-based, NIH3T3, luminescence, dose retest, confirmation (AID 435004); format: functional;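 note: stress induced by proteasome inhibitor MG132 added 30 min after compound; luciferase reporter driven by HSF1 response element in NIH3T3 cells; actives raise luminescence as potentiators of the MG132 stress response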
T1 sequence (P38532 whole entry): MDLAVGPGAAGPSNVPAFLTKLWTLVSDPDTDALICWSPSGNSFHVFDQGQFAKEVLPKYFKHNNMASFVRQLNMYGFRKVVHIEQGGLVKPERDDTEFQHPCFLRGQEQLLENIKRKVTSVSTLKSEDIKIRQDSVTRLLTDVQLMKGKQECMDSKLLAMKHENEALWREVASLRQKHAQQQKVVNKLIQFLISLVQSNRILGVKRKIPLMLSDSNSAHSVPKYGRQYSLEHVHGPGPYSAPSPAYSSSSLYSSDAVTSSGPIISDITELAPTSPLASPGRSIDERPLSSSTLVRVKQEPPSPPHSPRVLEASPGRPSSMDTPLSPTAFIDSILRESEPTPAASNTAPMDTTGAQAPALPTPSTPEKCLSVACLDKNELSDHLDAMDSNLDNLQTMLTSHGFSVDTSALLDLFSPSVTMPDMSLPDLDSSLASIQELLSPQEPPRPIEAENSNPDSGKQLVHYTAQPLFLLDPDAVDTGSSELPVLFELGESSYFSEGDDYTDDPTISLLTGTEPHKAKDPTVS

[2] = NIH-3T3 fibroblast cytotoxicity, dose response, cytotoxicity control, cell-based, fluorescence, Alamar Blue, secondary assay (AID 2327); format: functional;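 note: NIH-3T3 mouse fibroblasts cultured with fluconazole at 8 µg/mL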
[3] = fluconazole-exposed Candida albicans growth modulators – fluorescence, retest, confirmation (AID 2467); format: functional, cell-based
Cytochrome P450 2D6 = Cytochrome P450 2D6 (Homo sapiens, UniProt P10635);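 note: CYP2D6 member of a cytochrome P450 panel assay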
Cytochrome P450 2C9 = Cytochrome P450 2C9 (Homo sapiens, UniProt P11712)
Cytochrome P450 2C19 = Cytochrome P450 2C19 (Homo sapiens, UniProt P33261); test: Cytochrome panel assay with activity outcomes. Panel member name: p450-cyp2c19 Compounds with AC50 equal or less than 10 uM are considered active; format: functional; conditions: read-out: AC50
[4] = microbe, parasite or virus in culture; format: functional; conditions: Mycobacterium tuberculosis
[5] = luciferase reporter signal suppression in cells – H4 neuroglioma cells, luminescence, dose response (AID 1990); format: functional, cell-based
[6] = alpha-synuclein stem-loop luciferase translation blockers – H4 neuroglioma cells, luminescence, confirmation (AID 1988); format: functional, cell-based
[7] = Luminescence Cell-Based Dose Response HTS to Identify Inhibitors of 5'UTR Stem-Loop Driven Prion Protein mRNA Translation in H4 Neuroglioblastoma Cells. [Related pubchem assays: 1827 (Project Summary), 1813 (Primary HTS)]; format: functional
INS1 = test: INS-1E survival protection against cytokine death – cell-based, luminescence, retest, dose response (AID 449756); format: functional; conditions: Rattus norvegicus;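 note: cell death triggered by IL-1 beta plus TNF-alpha plus IFN-gamma mixture; protective hits raise ATP signal compared with cytokine alone wells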
[8] = target: FAD-linked sulfhydryl oxidase ALR (Homo sapiens, UniProt P55789); test: ALR-catalysed DTT oxidation blockers – biochemical, H2O2 detection, luminescence, cherry-pick, dose response (AID 493248)
[9] = viability of uninfected HEp-2 cells – cell-based, HTS, cytotoxicity control for RSV inhibitor project, dose response (AID 2410); format: functional; conditions: human respiratory syncytial virus
[10] = Luminescence Cell-Based Dose Response HTS to Identify Activators of Luciferase Translation or Activity in H4 […] Cells. [Related pubchem assays: 1829 (Project Summary), 1814 (Primary HTS)]; format: functional
[11] = Luminescence Cell-Based Dose Confirmation HTS to Identify Activators of 5'UTR Stem-Loop Driven Alpha-Synuclein mRNA Translation in H4 Neuroglioblastoma Cells. [Related pubchem assays: 1829 (Project Summary), 1814 (Primary HTS)]; format: functional
H4 = test: Luminescence Cell-Based Dose Response HTS to Identify Activators of 5'UTR Stem-Loop Driven Prion Protein mRNA Translation in H4 Neuroglioblastoma Cells. [Related pubchem assays: 1829 (Project Summary), 1814 (Primary HTS)]; format: functional; conditions: Homo sapiens
[12] = target: T2, Rac GTPase-activating protein 1 (Homo sapiens, UniProt Q9H0H5); test: blockers of MgcRacGAP-driven Rac1 GTP hydrolysis – biochemical, ADP Hunter fluorescence, primary and confirmatory, confirmation (AID 624330); format: functional
T2 sequence (Q9H0H5 whole entry): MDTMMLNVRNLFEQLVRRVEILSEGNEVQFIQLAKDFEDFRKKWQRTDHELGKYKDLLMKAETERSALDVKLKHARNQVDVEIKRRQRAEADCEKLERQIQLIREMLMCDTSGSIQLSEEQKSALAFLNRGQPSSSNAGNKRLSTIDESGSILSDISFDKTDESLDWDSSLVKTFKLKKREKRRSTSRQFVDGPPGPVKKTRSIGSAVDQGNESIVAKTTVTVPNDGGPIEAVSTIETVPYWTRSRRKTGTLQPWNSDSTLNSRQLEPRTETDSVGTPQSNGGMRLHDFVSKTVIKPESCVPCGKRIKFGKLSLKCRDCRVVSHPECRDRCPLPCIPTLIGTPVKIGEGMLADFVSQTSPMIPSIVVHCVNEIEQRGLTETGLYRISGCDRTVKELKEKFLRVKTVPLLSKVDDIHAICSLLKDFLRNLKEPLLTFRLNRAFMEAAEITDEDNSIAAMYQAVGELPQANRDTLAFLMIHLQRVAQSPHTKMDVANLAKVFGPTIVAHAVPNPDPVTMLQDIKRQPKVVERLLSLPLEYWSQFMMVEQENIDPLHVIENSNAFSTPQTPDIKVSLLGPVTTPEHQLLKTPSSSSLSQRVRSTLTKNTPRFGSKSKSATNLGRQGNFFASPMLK

[13] = Luminescence Cell-Based Dose Retest to Confirm Inhibitors of Cancer Stem Cells. [Related pubchem assays (depositor defined):AID2717, AID2721]; format: functional; conditions: Homo sapiens
[14] = NIH3T3 cell viability loss – ATP luminescence, mouse fibroblasts, counter-screen, dose response (AID 2010); format: functional, cell-based;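 note: cells exposed to compound for about 90 hours before reading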
[15] = Trypanosoma cruzi growth suppression in host cells – NIH3T3 host cells, beta-gal luminescence, confirmation (AID 2044); format: functional, cell-based;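 note: intracellular parasites grown in NIH/3T3 mouse fibroblasts as host cells; luminescent beta-galactosidase reporter signal from transgenic T. cruzi replicating inside host cells; inhibitors lower the luminescence signal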

Chain of FAD-linked sulfhydryl oxidase ALR (P55789 whole entry): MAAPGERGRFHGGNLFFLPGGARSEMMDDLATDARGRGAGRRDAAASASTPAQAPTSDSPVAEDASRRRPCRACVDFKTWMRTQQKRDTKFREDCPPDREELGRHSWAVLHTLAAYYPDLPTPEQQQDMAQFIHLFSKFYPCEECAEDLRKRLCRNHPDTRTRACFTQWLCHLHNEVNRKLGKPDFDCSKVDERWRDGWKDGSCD
Chain of Cytochrome P450 2D6 (P10635 whole entry): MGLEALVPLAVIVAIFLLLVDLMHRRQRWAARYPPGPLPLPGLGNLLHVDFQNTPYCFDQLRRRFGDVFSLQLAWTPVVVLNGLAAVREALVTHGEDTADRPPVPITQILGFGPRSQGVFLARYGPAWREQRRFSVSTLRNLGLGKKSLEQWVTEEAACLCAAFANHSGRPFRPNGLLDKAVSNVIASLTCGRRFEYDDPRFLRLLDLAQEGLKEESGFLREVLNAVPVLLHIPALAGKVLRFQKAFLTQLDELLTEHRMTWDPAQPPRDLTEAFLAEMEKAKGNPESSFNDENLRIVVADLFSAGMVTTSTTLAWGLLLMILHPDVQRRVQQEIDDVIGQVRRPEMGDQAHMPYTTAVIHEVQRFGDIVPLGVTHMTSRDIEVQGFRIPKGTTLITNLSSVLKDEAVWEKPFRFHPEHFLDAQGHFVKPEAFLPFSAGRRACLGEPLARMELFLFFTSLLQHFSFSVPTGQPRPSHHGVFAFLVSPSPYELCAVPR
Chain of Cytochrome P450 2C19 (P33261 whole entry): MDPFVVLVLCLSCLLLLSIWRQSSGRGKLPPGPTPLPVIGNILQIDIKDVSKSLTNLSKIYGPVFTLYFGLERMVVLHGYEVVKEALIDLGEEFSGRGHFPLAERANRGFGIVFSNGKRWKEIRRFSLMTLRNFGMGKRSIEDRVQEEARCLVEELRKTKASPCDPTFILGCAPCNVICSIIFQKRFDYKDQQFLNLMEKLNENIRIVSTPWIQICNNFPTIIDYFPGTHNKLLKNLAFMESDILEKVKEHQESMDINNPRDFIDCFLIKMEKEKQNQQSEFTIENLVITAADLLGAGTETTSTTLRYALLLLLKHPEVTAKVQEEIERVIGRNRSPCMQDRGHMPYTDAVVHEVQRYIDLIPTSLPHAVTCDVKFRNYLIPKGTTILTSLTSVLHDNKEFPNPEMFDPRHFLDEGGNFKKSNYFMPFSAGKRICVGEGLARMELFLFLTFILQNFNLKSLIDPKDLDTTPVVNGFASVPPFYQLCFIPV
Chain of Cytochrome P450 2C9 (P11712 whole entry): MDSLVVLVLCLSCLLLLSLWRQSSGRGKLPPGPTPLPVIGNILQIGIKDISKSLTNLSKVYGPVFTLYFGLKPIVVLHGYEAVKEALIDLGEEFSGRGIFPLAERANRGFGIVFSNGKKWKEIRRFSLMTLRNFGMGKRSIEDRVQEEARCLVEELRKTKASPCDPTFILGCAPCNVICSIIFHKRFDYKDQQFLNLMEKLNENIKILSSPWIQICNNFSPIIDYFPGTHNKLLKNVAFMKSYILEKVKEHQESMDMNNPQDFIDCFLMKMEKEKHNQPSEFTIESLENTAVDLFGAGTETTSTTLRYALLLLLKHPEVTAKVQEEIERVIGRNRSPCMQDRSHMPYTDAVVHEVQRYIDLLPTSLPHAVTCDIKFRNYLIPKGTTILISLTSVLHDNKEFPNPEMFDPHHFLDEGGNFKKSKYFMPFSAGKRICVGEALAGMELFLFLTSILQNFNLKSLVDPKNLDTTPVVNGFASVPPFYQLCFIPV

CC(C)=NN1C(=O)c2ccccc2NC1(C)C
EC50 [1]: > 260 µM (inactive)

C[C@@H]1C(NC(=O)c2ccccc2)CC2CC1C2(C)C (stereo partly drawn)
EC50 [1]: > 260 µM (inactive)

O=C1c2ccccc2C(=O)N1CC(O)COc1ccc(Br)cc1 (stereo not drawn)
EC50 [1]: 64.3 µM (active)

O=[N+]([O-])c1ccc(C2[C@H]3C(c4ccccc4)=NC4(CCCC4)N23)cc1 (stereo partly drawn)
EC50 [2]: > 150 µM (inactive) | EC50 [3]: > 38 µM (not active)

COc1ccc(-c2cc(-c3c(O)c(OC)c4occc4c3OC)[nH]n2)cc1OC
AC50 (Cytochrome P450 2D6): 25.1 µM (inconclusive) | AC50 (Cytochrome P450 2C9): 39.8 µM (inconclusive) | EC50 [2]: > 160 µM (inactive) | EC50 [3]: > 38 µM (not active)

Cn1c(=O)cc(OCCCC(=O)Nc2cccnc2)c2ccccc21
AC50 (Cytochrome P450 2D6): 10 µM (inconclusive) | AC50 (Cytochrome P450 2C19): 20 µM (inconclusive) | EC50 [2]: > 160 µM (inactive) | EC50 [3]: > 38 µM (not active)

COCCCNC(=O)/C(C#N)=C/c1c(N2CCN(c3cccc(Cl)c3)CC2)nc2c(C)cccn2c1=O
CC50 [4]: > 40 µM (active)

COc1ccccc1N1CCN(CCCCOc2cccc3ccccc23)CC1
CC50 [4]: > 40 µM (active)

CCc1nnc(NC(=O)c2ccc(S(=O)(=O)NC3CCCCC3)cc2)s1
EC50 [5]: > 120 µM (not active) | EC50 [6]: > 120 µM (not active) | EC50 [7]: > 120 µM (not active)

CCC(O)CC(C(=O)NNc1ccccc1)C(=O)NNc1ccccc1 (stereo not drawn)
EC50 [2]: 20.6 µM (active) | EC50 [3]: > 38 µM (not active)

COc1ccc(-c2cn(CCO)nc2-c2ccc(OC)cc2)cc1
EC50 [5]: 16.1 µM (active) | EC50 [6]: > 120 µM (not active) | EC50 [7]: > 120 µM (not active)

CN(CC(=O)Nc1ccc(F)c(F)c1F)c1cnccn1
CC50 [4]: 23.5 µM (active)

CN(C)c1cc[n+](CC(=O)Nc2ccc(Oc3ccccc3)cc2)cc1
EC50 [5]: 17.1 µM (active) | AC50 (INS1): 4.17 µM (active) | EC50 [6]: 14.9 µM (active) | EC50 [7]: > 120 µM (not active)

O=C(CN(C(=O)c1csnn1)c1ccc(F)c(Cl)c1)NCc1ccc(F)cc1
EC50 [1]: > 260 µM (inactive)

CCCc1cn(S(=O)(=O)c2ccc(OC)cc2OC)nc1N
AC50 [8]: 9.53 µM (active)

CC(=O)COc1cccc2ccc(/C=C/c3ccc(Br)s3)nc12
CC50 [9]: 45.4 µM (active) | EC50 [1]: 60.9 µM (active)

COC(=O)c1cc(-c2c(C)nn(-c3ccccc3)c2C)[nH]n1
EC50 [10]: 11.5 µM (active) | EC50 [11]: 11.8 µM (active) | EC50 (H4): 11.2 µM (active) | AC50 [8]: 1.2 µM (active)

O=C(NNc1cccc(Cl)c1)c1cccnc1Cl
EC50 [2]: 24.8 µM (active) | AC50 [8]: 4.14 µM (active) | EC50 [3]: > 38 µM (not active)

COc1ccc(-c2nc(Cn3c(SCc4ccc(F)cc4)nc4ccncc43)c(C)o2)cc1OC
EC50 [1]: 34.7 µM (active)

Cc1cc2c(cc1C)-c1nnnn1C(C)(C)C2
EC50 [1]: > 260 µM (inactive)

Cc1cnc(NC(=O)C(C)N2CCN(C)CC2)s1 (stereo not drawn)
IC50 [12]: 80.4 µM (active)

O=C(CN1C(=O)C2CC=CCC2C1=O)Nc1nc2ccc(F)cc2s1 (stereo not drawn)
AC50 [8]: 0.494 µM (active)

CC(=O)n1c2c(c3ccccc31)OC(N)=C(C#N)C2c1cccc(Cl)c1Cl (stereo not drawn)
AC50 [13]: 1.57 µM (active) | EC50 [1]: 42.4 µM (active)

COc1ccccc1-c1cc(C(=O)NC2CCN(C)CC2)c2ccc(Cl)c(C)c2n1
CC50 [4]: 7.01 µM (active) | EC50 [14]: > 60 µM (not active) | EC50 [15]: 1.4 µM (active)
